Measurements: publication PMC5641405 (Organic letters, 2017)

Assays:
[1] = biological target: N-methyl-D-aspartate (NMDA) receptor, MK-801 binding site; assay: radioligand displacement of [3H]-MK801; details: read-out: IC50 (μM) ^a; MK-801 channel site
[2] = biological target: N-methyl-D-aspartate (NMDA) receptor, MK-801 binding site; assay: radioligand displacement of [3H]-MK801; details: read-out: Ki (μM) ^a; MK-801 channel site

Compound | IC50 [1] | Ki [2]
N[C@@]1(c2ccccc2Cl)CCC[C@@H](O)C1=O [7a, (2R,6R)-HNK] | > 100 µM | > 100 µM
CNC1(c2ccccc2Cl)CCCCC1=O (racemic) [compound 1, (R,S)-ketamine] | 0.35 µM | 0.25 µM
N[C@@]1(c2ccccc2Cl)CC[C@H](O)CC1=O [9a, (2R,5S)-HNK] | > 100 µM | > 100 µM
(+)-MK-801 [reference compound] | 0.00493 µM | 0.00348 µM
N[C@@]1(c2ccccc2Cl)C[C@H](O)CCC1=O [11a, (2R,4R)-HNK] | > 100 µM | > 100 µM
N[C@]1(c2ccccc2Cl)CCC[C@H](O)C1=O [7b, (2S,6S)-HNK] | 10.4 µM | 7.34 µM
N[C@]1(c2ccccc2Cl)CC[C@@H](O)CC1=O [9b, (2S,5R)-HNK] | > 100 µM | > 100 µM
N[C@@]1(c2ccccc2Cl)C[C@@H](O)CCC1=O [10a, (2R,4S)-HNK] | > 100 µM | > 100 µM
N[C@]1(c2ccccc2Cl)C[C@H](O)CCC1=O [10b, (2S,4R)-HNK] | > 100 µM | > 100 µM
N[C@]1(c2ccccc2Cl)CC[C@H](O)CC1=O [8b, (2S,5S)-HNK] | > 100 µM | > 100 µM
N[C@@]1(c2ccccc2Cl)CCC=CC1=O [3a, (R)-DHNK] | 59.7 µM | 42.1 µM
N[C@@]1(c2ccccc2Cl)CCC[C@H](O)C1=O [4a, (2R,6S)-HNK] | > 100 µM | > 100 µM
N[C@]1(c2ccccc2Cl)C[C@@H](O)CCC1=O [11b, (2S,4S)-HNK] | > 100 µM | > 100 µM
N[C@]1(c2ccccc2Cl)CCC[C@@H](O)C1=O [4b, (2S,6R)-HNK] | > 100 µM | > 100 µM
N[C@@]1(c2ccccc2Cl)CC[C@@H](O)CC1=O [8a, (2R,5R)-HNK] | > 100 µM | > 100 µM
N[C@]1(c2ccccc2Cl)CCC=CC1=O [3b, (S)-DHNK] | 42 µM | 29.7 µM
